Results as given in patent US20220380761A1, “ORAL DELIVERY OF OLIGONUCLEOTIDES” (CiVi Biopharma, Inc., priority 2021, published 2022).
l = locked nucleic acid (LNA); d = 2'-deoxy (DNA)

Experiments:
[1] = Oral capsule toxicokinetic study of CIVI 008 using 5-CNAC as carrier; type: in vivo, Cynomolgus monkey; conditions: for AUC with increasing dose of CIVI 008 / Cmax with increasing dose of CIVI 008: constant dose of 5-CNAC
Description: The objectives of this study were to determine the ability of 5-CNAC [Disodium N-(5-Chorosalicyloyl)-8-aminocaprylate] to facilitate oral uptake of CIVI 008 and to determine the manufacture method and dosing paradigm of CIVI 008/5-CNAC capsules that provide the most efficient oral uptake of CIVI 008 when administered to Cynomolgus monkeys of Mauritian origin.
Study outline: A total of 10 Cynomolgus monkeys (5 males and 5 females) were each dosed with 2 group A capsules on Monday and Wednesday in week 1, followed by 4 days of dosing holiday. This Monday and Wednesday dosing scheme was continued in weeks 2, 3, 5, 6, 7, 8, 13, 14, 15 and 17 using 2 group B-capsules per dose occasion in week 2, and 1 capsule of groups C to K per dose occasion in their respective weeks. During the dosing period, blood samples for PK analysis were drawn pre-dose and 0.5, 1.5, 3 and 5 hours post-dosing on Mondays and Wednesdays. Samples for clinical chemistry and hematology (see example 1) were taken pre-study and end of study.

plasma LDL = experiment: Plasma LDL after once-daily oral CIVI 008/5-CNAC capsule for 49 days; type: in vivo, Cynomolgus monkey; conditions: 5-CNAC vs SNAC
Experimental: The objectives of this study were to determine the ability of 5-CNAC [disodium N-(5-chorosalicyloyl)-8-aminocaprylate] to reduce plasma PCSK9 when dosed once daily for 7 weeks. The half-life of CIVI 008 in the liver of non-human primates is between 2 to 3 weeks, so after 7-weeks of dosing liver concentrations are expected to reach >80% of its steady state level.
Study outline: Dry blended capsules (20 mg CIVI 008/200 mg 5-CNAC) were manufactured from uniform dry blended formulations, that were filled into enterically coated Size 0, hard shell gelatin capsules. A total of 10 Cynomolgus monkeys (5 males and 5 females) were each administered a single capsule by oral gavage once daily for 49 days. […] During the dosing period, blood samples for PK analysis were drawn pre-dose and 0.5, 1.5, 3 and 5 hours post-dosing at study start and at day 49. Blood samples for PCSK9 and lipid analysis were drawn on week −2 and −1 pre-study, pre-dose on Day 1 and weekly thereafter for the duration of the study. Samples for clinical chemistry, coagulation and hematology were taken on week −2 and −1 pre-study, and on Day 22 and 49.

[2] = Oral capsule PK study of an oligo against Factor VII, with or without GalNAc, using 5-CNAC as carrier; type: in vivo, Cynomolgus monkey
Experimental: (§1) Study outline: Dry blended capsules (20 mg Factor FVII with or without GalNac/200 mg 5-CNAC) were manufactured from uniform dry blended formulations, that were filled into enterically coated Size 0, hard shell gelatin capsules. A total of 10 Cynomolgus monkeys (5 males and 5 females) were each administered a single capsule of either oligo by oral gavage, and blood samples for PK analysis were drawn pre-dose and 0.5, 1.5, 3 and 5 hours post-dosing.

[3] = Oral capsule PK study of CIVI 008 without GalNAc using 5-CNAC as carrier; type: in vivo, Cynomolgus monkey; conditions: single oral capsule 20 mg/200 mg 5-CNAC
Description: As shown in previous Examples 1 and 3, orally dosed CIVI 008 with GalNAc is rapidly internalized in the liver by the GalNAc receptor, with very little CIVI 008 escaping into general circulation at doses below that required for saturation of the GalNAc receptor. In many instances the objective is to target genes that are expressed in organs other than the liver. […] The objective of this study was to determine the systemic exposure of orally administered CIVI 008 without the GalNAc conjugate, and to compare the exposure to that of a similar oral dose of CIVI 008 with GalNAc.
as §1, with “CIVI 008” for “Factor FVII with or”, “GalNAc/200” for “GalNac/200”, “capsule” for “capsule of either oligo”

plasma LDL-cholesterol = experiment: Plasma LDL cholesterol change from baseline after daily oral CIVI 008/SNAC capsules; type: in vivo, Cynomolgus monkey
Description: (§2) Clinical chemistry, PCSK9 and lipids: urea nitrogen, creatinine, total protein, albumin, globulin, albumin:globulin ratio, total bilirubin, aspartate aminotransferase, alanine aminotransferase, alkaline phosphatase, gamma glutamyltransferase, creatine kinase, calcium, inorganic phosphorus, sodium, potassium, chloride, high density lipoproteins, low density lipoprotein, very low density lipoprotein, total cholesterol, triglycerides.

[4] = cynomolgus monkey, in vivo
Experimental: (§3) The objectives of this study were to evaluate the toxicity and reversibility of CIVI 008 and to determine the pharmacology, plasma exposure and target organ accumulation of CIVI 008 when administered daily by oral capsule to the Cynomolgus monkey of Mauritian origin for 42 days compared to administration by the subcutaneous route administered once every two weeks (investigated previously).
(§4) Oral Capsule: Capsules containing CIVI 008 (10 mg)/SNAC (100 mg) were manufactured as uniform dry blend formulations, that were filled into Size 4 hard shell gelatin capsules that were enterically coated post fill.

[5] = cynomolgus monkey, in vivo, po
Experimental: as §3, §4

[6] = Repeat-dose toxicity of CIVI 008 formulated with SNAC (GLP); type: in vivo, Cynomolgus monkey
[7] = Half-life of CIVI 008 in the liver; type: in vivo, non-human primates; conditions: expected after 7-weeks of once daily dosing
PCSK9 = PCSK9 change from baseline after daily oral CIVI 008/SNAC capsules for 42 days; type: in vivo, Cynomolgus monkey; conditions: control animals, 20 mg CIVI 008 capsules without SNAC, daily x 42
Description: as §2

[8] = single oral capsule 20 mg/200 mg 5-CNAC
[9] = CIVI 008 with 5-CNAC capsule, stated as specific aspect
[10] = dose range 5 mg to 30 mg, 200 mg 5-CNAC

O=C(O)CCCCCCCNC(=O)c1cc(Cl)ccc1O [5-CNAC, N-(5-chlorosalicyloyl)-8-aminocaprylic acid]
efficiency of carrier in facilitating oral uptake of CIVI 008 ([1]; 5-CNAC vs SNAC): more efficient of the two carriers | efficiency in facilitating oral uptake of CIVI 008 (plasma LDL): substantially more efficient than SNAC

unconjugated Factor FVII oligo: 13 nt LNA gapmer antisense oligo against Factor VII, SEQ ID NO: 158, without GalNAc moiety (antisense GCACCACGGTCCA; sugars from the 5' end l2 d8 l3, all phosphorothioate, methylation of C not given here)
AUC relative to GalNac conjugated Factor FVII oligo [2, 8]: ~3.5 fold | Cmax relative to GalNac conjugated Factor FVII oligo [2, 8]: ~3.5 fold

CIVI 008 without GalNAc: Unconjugated form of CIVI 008, 16 nt LNA gapmer, SEQ ID NO: 134, without GalNAc moiety (AATGCTACAAAACCCA; LNA gapmer stated, pattern not given here)
AUC relative to similar dose of CIVI 008 with GalNac [3]: ~8 fold | Cmax relative to similar dose of CIVI 008 with GalNac [3]: ~8 fold | concentrations in the plasma [3]: measurable concentrations | plasma profile compared to CIVI 008 with GalNAc [3]: very similar

cepadacursen (AATGCTACAAAACCCA; LNA gapmer with GalNAc conjugate, pattern not given here) [CIVI 008]
LDL-c reductions (plasma LDL-cholesterol; control animals, 20 mg CIVI 008 capsules without SNAC, throughout the study): fluctuated around baseline values | LDL levels at the end of recovery (plasma LDL-cholesterol; end of recovery): had yet to fully return to baseline | LDL levels at the end of dosing, persistence (plasma LDL-cholesterol; recovery period after 42 days oral dosing with SNAC): maintained for two weeks post-dosing | liver concentrations, difference between the SQ and PO arms [4]: approximately one | form of CIVI 008 detected in plasma (HPLC peak) [5]: mixture of parent compound and metabolites | form of CIVI 008 detected in plasma (HPLC retention time) [5]: absorbed intact from the gut | mean Tmax [5]: ≤ 30 min | histopathological changes in intestinal tract (duodenum, jejunum, ileum and colon) ([6]; QD oral dosing for 42 days): no local histopathological changes | macroscopic or microscopic findings suggesting local or systemic effects ([6]; end of dosing and end of recovery): no macroscopic or microscopic findings | organ weight changes ([6]; following oral capsule administration): no organ weight changes | liver concentrations as share of steady state level [7]: > 80% | mean PCSK9 reductions (PCSK9): comparatively small | AUC0-5 with 5-CNAC carrier compared to similar dose with SNAC carrier ([1]; 5-CNAC vs SNAC (Example 1)): increase | Cmax with 5-CNAC carrier compared to similar dose with SNAC carrier ([1]; 5-CNAC vs SNAC (Example 1)): increase | increase of the mean AUC0-50 with respect to corresponding composition comprising SNAC instead of 5-CNAC [1, 9]: about 80% | increase of the mean Cmax with respect to corresponding composition comprising SNAC instead of 5-CNAC [1, 9]: about 110% | AUC with increasing dose of CIVI 008 ([1]; dose above 25 mg): more than dose proportional increases | Cmax with increasing dose of CIVI 008 ([1]; dose above 25 mg): more than dose proportional increases | AUC with increasing dose of CIVI 008 ([1]; doses up to 25 mg): dose proportionally up to 25 mg | Cmax with increasing dose of CIVI 008 ([1]; doses up to 25 mg): dose proportionally up to 25 mg | AUC profiles, freeze-dried vs dry blended capsules [1, 10]: very similar | Cmax profiles, freeze-dried vs dry blended capsules [1, 10]: very similar

GalNac conjugated Factor FVII oligo: 13 nt LNA gapmer antisense oligo against Factor VII, SEQ ID NO: 158, with GalNAc moiety (antisense GCACCACGGTCCA; sugars from the 5' end l2 d8 l3, all phosphorothioate, methylation of C not given here; GalNAc conjugate attached, further chemistry not fully specified)
species found in plasma samples ([2]; 0.5 hr samples): parent compound | species found in plasma samples ([2]; 1.5 hr samples): mixture of parent compound and loss of carbohydrate moiety | species found in plasma samples ([2]; 3 hr samples): progressive loss of carbohydrate moiety | species found in plasma samples ([2]; 5 hr samples): progressive loss of carbohydrate moiety
